For one assay, the target named is DGK α kinase (Homo sapiens, UniProt P23743). Description: In vitro DGK inhibition assay (ADP Glo) run by Reaction Biology Corp., DGK alpha. The format is biochemical. Conditions: isomer A, 2 nM kinase, 50 μM ATP, 500 uM DLG, 10-dose, 3-fold dilution starting at 1 μM, read-out: DGKalpha IC50. As for the experimental part:
(§1) DGK α and ζ kinase use ATP to phosphorylate the substrate 1,2-dilauroyl-sn-glycerol (DLG). ATP is converted to ADP as a result of this enzymatic reaction.
(§2) After the kinase reaction, an ATP-depletion reagent is added to terminate the kinase reaction and deplete any remaining ATP, leaving only ADP. Second, a detection reagent is added to simultaneously convert ADP to ATP and allow the newly synthesized ATP to be converted to light using a coupled luciferase/luciferin reaction.
(§3) DGK α and ζ kinase ADP Glo assays were ran by Reaction Biology Corp., 1 Great Valley Parkway, Suite 2, Malverm, 19355, PA, USA. Information provided by the service provider are the following: DGK α and ζ kinases were used at 2 nM final concentration. Reactions were carried out at 50 μM ATP. 500 uM of the substrate DLG (Dilauroyl-sn-glycerol) was used. Compounds were received at 10 mM DMSO stock solution and were tested in 10-dose IC50 duplicate with 3-fold serial dilution starting at 1 μM. A control compound, Calphostin C, was tested in 10-dose IC50 with 3-fold serial dilution starting at 100 μM.
For orientation: In ADP-Glo the light output rises with the ADP produced.

The next assay has as its target DGK ζ kinase (Homo sapiens, UniProt Q13574). Put plainly: In vitro DGK inhibition assay (ADP Glo) run by Reaction Biology Corp., DGK zeta. The class given is biochemical. Conditions: isomer A, 2 nM kinase, 50 μM ATP, 500 uM DLG, 10-dose, 3-fold dilution starting at 1 μM, read-out: DGKzeta IC50. As for the experimental part: as §1, §2, §3

Chain of DGK ζ kinase (Q13574 whole entry): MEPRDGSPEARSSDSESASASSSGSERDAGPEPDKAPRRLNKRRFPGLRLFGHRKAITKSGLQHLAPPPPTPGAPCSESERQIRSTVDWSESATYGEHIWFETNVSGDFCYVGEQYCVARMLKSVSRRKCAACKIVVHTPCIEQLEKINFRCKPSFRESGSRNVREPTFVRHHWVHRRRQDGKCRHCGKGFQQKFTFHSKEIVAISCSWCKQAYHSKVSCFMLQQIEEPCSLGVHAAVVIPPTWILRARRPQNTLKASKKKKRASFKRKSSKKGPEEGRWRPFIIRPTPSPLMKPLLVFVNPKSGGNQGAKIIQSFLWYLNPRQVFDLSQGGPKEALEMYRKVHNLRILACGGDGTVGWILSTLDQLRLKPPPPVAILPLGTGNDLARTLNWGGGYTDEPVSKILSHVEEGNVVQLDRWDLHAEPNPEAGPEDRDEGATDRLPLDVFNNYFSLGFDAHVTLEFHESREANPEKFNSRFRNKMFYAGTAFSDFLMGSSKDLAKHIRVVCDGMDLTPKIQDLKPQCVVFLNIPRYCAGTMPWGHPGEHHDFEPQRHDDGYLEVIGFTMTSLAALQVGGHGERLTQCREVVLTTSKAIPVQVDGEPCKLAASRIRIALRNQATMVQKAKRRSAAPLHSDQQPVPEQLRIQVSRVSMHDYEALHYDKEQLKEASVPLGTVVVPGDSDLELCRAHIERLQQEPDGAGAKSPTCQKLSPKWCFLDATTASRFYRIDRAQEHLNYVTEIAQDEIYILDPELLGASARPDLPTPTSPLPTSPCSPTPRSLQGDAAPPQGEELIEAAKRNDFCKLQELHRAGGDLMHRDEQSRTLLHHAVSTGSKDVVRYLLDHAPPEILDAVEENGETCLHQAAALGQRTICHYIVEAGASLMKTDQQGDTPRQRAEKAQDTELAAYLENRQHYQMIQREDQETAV
Chain of DGK α kinase (P23743 whole entry): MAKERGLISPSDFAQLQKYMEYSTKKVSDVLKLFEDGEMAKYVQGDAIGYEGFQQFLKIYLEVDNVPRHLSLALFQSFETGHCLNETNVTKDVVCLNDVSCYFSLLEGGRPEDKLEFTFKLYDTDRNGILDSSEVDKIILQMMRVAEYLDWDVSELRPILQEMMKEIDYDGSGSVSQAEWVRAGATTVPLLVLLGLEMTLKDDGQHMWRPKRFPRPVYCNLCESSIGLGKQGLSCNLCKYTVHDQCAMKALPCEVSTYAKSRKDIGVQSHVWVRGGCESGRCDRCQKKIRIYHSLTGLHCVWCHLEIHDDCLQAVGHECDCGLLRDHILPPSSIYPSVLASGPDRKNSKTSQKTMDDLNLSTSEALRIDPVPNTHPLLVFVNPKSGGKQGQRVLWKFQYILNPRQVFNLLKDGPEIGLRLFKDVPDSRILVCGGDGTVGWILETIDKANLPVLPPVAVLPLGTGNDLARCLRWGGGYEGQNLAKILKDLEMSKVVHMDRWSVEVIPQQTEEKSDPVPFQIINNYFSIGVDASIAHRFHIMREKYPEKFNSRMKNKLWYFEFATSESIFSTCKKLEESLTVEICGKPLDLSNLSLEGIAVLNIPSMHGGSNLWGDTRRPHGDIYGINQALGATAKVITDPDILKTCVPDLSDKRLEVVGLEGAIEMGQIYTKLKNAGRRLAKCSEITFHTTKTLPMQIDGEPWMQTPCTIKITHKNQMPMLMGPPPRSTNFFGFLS

Turning to “2-methyl-2-[5-[(3S)-3-amino-5,5,7-trifluoro-2-oxo-1-[[4-(trifluoromethoxy)phenyl]methyl]-3,4-dihydro-1-benzazepin-8-yl]-1,3,4-oxadiazol-2-yl]propanenitrile and 2-methyl-2-[5-[(3R)-3-amino-5,5,7-trifluoro-2-oxo-1-[[4-(trifluoromethoxy)phenyl]methyl]-3,4-dihydro-1-benzazepin-8-yl]-1,3,4-oxadiazol-2-yl]propanenitrile [Example 2]”, the IC50 at DGK α kinase worked out at 10.5 nM; on DGK ζ kinase, 22.1 nM.

Take `CC(C)(c1nnc(-c2cc3c(cc2F)C(F)(F)CC(N)C(=O)N3Cc2ccc(Oc3ccccc3)cc2)o1)S(C)(=O)=O` (racemic) [Example 5, (3S)-3-amino-5,5,7-trifluoro-8-[5-(1-methyl-1-methylsulfonyl-ethyl)-1,3,4-oxadiazol-2-yl]-1-[(4-phenoxyphenyl)methyl]-3,4-dihydro-1-benzazepin-2-one and (3R)-3-amino-5,5,7-trifluoro-8-[5-(1-methyl-1-methylsulfonyl-ethyl)-1,3,4-oxadiazol-2-yl]-1-[(4-phenoxyphenyl)methyl]-3,4-dihydro-1-benzazepin-2-one]: the figures for the IC50 at DGK α kinase and on DGK ζ kinase were 124 nM and 57.9 nM, respectively.

Turning to `CC(C)(C#N)c1nnc(-c2cc3c(cc2F)C(F)(F)CC(N)C(=O)N3Cc2ccc(-n3cc(C(F)(F)F)cn3)cc2)o1` (racemic) [Example 33, 2-[5-[(3S)-3-amino-5,5,7-trifluoro-2-oxo-1-[[4-[4-(trifluoromethyl)pyrazol-1-yl]phenyl]methyl]-3,4-dihydro-1-benzazepin-8-yl]-1,3,4-oxadiazol-2-yl]-2-methyl-propanenitrile and 2-[5-[(3R)-3-amino-5,5,7-trifluoro-2-oxo-1-[[4-[4-(trifluoromethyl)pyrazol-1-yl]phenyl]methyl]-3,4-dihydro-1-benzazepin-8-yl]-1,3,4-oxadiazol-2-yl]-2-methyl-propanenitrile], the 50% inhibitory concentration (IC50) is 8.2 nM on DGK α kinase and 80.3 nM at DGK ζ kinase.

For `CC(C)(C)c1nnc(-c2cc3c(cc2F)C(F)(F)C[C@@H](N)C(=O)N3Cc2ccc(OC3CCCC3)cc2)o1` (single isomer, unassigned) [Example 7], the IC50 was 70.3 nM on DGK α kinase and 49.5 nM at DGK ζ kinase.

For the compound `COc1ccc(-c2ccc(CN3C(=O)[C@H](N)CC(F)(F)c4cc(F)c(-c5nnc(C(C)(C)C#N)o5)cc43)cc2)cc1` (single isomer, unassigned) [Example 9], the IC50 on DGK α kinase is 43.6 nM; at DGK ζ kinase, 32.6 nM.

`COc1ccc(-c2ccc(CN3C(=O)[C@H](N)CC(F)(F)c4cc(F)c(-c5nnc(C(C)(C)S(C)(=O)=O)o5)cc43)cc2)cc1` (single isomer, unassigned) [Example 10]: the IC50 on DGK α kinase was determined as 93.1 nM; on DGK ζ kinase, 1060 nM.

As to `CC(C)(C#N)c1nnc(-c2cc3c(cc2F)C(F)(F)C[C@@H](N)C(=O)N3Cc2ccc(-c3ccc(C(F)(F)F)cn3)cc2)o1` (single isomer, unassigned) [Example 12], the results for the IC50 on DGK α kinase and on DGK ζ kinase were 108 nM and 73 nM, respectively.

In the case of `CC(F)(F)c1ccc(-c2ccc(CN3C(=O)[C@H](N)CC(F)(F)c4cc(F)c(-c5nnc(C(C)(C)C#N)o5)cc43)cc2)nc1` (single isomer, unassigned) [Example 37], the IC50 on DGK α kinase was 46.2 nM; at DGK ζ kinase, 136 nM.

Usually IC50 stands for the concentration that inhibits the measured activity by half.

Values taken from patent US20250236614A1, “BICYCLIC TETRAHYDROAZEPINE DERIVATIVES” (Hoffmann-La Roche Inc., priority 2022, published 2025).
